Assay results published in article PMC9090415, “Discovery of small molecule inhibitors of Plasmodium falciparum apicoplast DNA polymerase” (Journal of Enzyme Inhibition and Medicinal Chemistry, 2022).

Target: T1, bacteriophage T4 DNA polymerase (Enterobacteria phage T4, UniProt P04415)
T1 construct: made in house
T1 sequence (P04415 1-898): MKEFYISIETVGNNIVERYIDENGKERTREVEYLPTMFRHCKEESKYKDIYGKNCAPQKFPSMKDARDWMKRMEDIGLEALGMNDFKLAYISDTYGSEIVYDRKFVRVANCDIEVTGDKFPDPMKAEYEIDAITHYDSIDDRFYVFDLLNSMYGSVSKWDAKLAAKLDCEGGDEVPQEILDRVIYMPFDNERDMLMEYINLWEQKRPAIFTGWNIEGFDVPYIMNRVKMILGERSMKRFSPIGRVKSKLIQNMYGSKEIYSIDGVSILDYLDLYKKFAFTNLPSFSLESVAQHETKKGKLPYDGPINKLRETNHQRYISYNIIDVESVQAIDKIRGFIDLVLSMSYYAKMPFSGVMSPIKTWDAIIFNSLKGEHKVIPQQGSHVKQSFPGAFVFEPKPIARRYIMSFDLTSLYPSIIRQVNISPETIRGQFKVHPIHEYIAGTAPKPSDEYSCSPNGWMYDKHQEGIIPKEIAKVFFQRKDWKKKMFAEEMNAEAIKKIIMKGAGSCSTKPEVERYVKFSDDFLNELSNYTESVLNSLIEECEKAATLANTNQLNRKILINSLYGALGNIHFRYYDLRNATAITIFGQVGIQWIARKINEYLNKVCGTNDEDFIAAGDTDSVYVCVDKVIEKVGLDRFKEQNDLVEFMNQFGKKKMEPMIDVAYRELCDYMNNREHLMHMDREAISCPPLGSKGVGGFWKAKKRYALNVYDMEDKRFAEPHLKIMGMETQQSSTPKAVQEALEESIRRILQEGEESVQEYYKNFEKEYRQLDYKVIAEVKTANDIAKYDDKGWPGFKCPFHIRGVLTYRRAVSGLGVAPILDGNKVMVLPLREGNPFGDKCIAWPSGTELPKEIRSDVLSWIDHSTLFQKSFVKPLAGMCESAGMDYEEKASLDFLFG
Experiment: Counter-screen against bacteriophage T4 DNA polymerase
Format: biochemical
Conditions: for % inhibition T4 10' 2.5 / % inhibition T4 10' 5 / % inhibition T4 10' 10 / % inhibition T4 10' 20 / % inhibition T4 10' 40 / % inhibition T4 10' 80: read at 10'; for % inhibition T4 70' 2.5 / % inhibition T4 70' 5 / % inhibition T4 70' 10 / % inhibition T4 70' 20 / % inhibition T4 70' 40 / % inhibition T4 70' 80: read at 70'; for % inhibition T4 130' 2.5 / % inhibition T4 130' 5 / % inhibition T4 130' 10 / % inhibition T4 130' 20 / % inhibition T4 130' 40 / % inhibition T4 130' 80: read at 130'; for % inhibition T4 40' 2.5 / % inhibition T4 40' 5 / % inhibition T4 40' 10 / % inhibition T4 40' 20 / % inhibition T4 40' 40 / % inhibition T4 40' 80: read at 40'; for % inhibition T4 90' 2.5 / % inhibition T4 90' 5 / % inhibition T4 90' 10 / % inhibition T4 90' 20 / % inhibition T4 90' 40 / % inhibition T4 90' 80: read at 90'; for % inhibition T4 180' 2.5 / % inhibition T4 180' 5 / % inhibition T4 180' 10 / % inhibition T4 180' 20 / % inhibition T4 180' 40 / % inhibition T4 180' 80: read at 180'
Outline: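 Purified T4 DNA polymerase, a B-family enzyme, served as the counter-screen enzyme. Compounds were tested in dose-response format and IC50 values were derived.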

## C#CC(C=CC)OC(=O)c1ccccc1C(=O)O (stereo not drawn) [Molecule 61, CC=CC(OC(=O)c1ccccc1C(=O)O)C#C]
DRC-1, concentration 2.5
  % inhibition T4 10' 2.5: 9.3785%
  % inhibition T4 70' 2.5: 5.999%
  % inhibition T4 130' 2.5: 3.358%
DRC-1, concentration 5
  % inhibition T4 10' 5: 11.31%
  % inhibition T4 70' 5: 5.822%
  % inhibition T4 130' 5: 2.079%
DRC-1, concentration 10
  % inhibition T4 10' 10: 22.4398%
  % inhibition T4 70' 10: 15.1139%
  % inhibition T4 130' 10: 10.4202%
DRC-1, concentration 20
  % inhibition T4 10' 20: 21.3205%
  % inhibition T4 70' 20: 11.2187%
  % inhibition T4 130' 20: 6.447%
DRC-1, concentration 40
  % inhibition T4 10' 40: 28.2089%
  % inhibition T4 70' 40: 17.6446%
  % inhibition T4 130' 40: 13.4652%
DRC-1, concentration 80
  % inhibition T4 10' 80: 28.2741%
  % inhibition T4 70' 80: 16.7862%
  % inhibition T4 130' 80: 12.4594%
DRC-2, concentration 2.5
  % inhibition T4 10' 2.5: -4.4%
  % inhibition T4 40' 2.5: -4.37%
  % inhibition T4 90' 2.5: -3.79%
  % inhibition T4 180' 2.5: -5.62%
DRC-2, concentration 5
  % inhibition T4 10' 5: -3%
  % inhibition T4 40' 5: -3.69%
  % inhibition T4 90' 5: -6%
  % inhibition T4 180' 5: -11%
DRC-2, concentration 10
  % inhibition T4 10' 10: 4%
  % inhibition T4 40' 10: 2%
  % inhibition T4 90' 10: 0.277%
  % inhibition T4 180' 10: -7%
DRC-2, concentration 20
  % inhibition T4 10' 20: 6.52%
  % inhibition T4 40' 20: 3.35%
  % inhibition T4 90' 20: 0.217%
  % inhibition T4 180' 20: -5.56%
DRC-2, concentration 40
  % inhibition T4 10' 40: 12%
  % inhibition T4 40' 40: 9%
  % inhibition T4 90' 40: 6%
  % inhibition T4 180' 40: -0.544%
DRC-2, concentration 80
  % inhibition T4 10' 80: 8%
  % inhibition T4 40' 80: 4.65%
  % inhibition T4 90' 80: 0.315%
  % inhibition T4 180' 80: -3.3%

## O=C(c1c[nH]c2ncccc12)N1CCCC1 [Molecule 63, O=C(c1c[nH]c2c1cccn2)N1CCCC1]
DRC-2, concentration 20
  % inhibition T4 10': 25%
  % inhibition T4 40': 25%
DRC-2, concentration 40
  % inhibition T4 10': 31%
  % inhibition T4 90': 31%

## O=C1c2ccccc2C(=O)N1Oc1ccc([N+](=O)[O-])c([N+](=O)[O-])c1 [Molecule 66, O=N(=O)c1cc(ccc1N(=O)=O)ON1C(=O)c2c(C1=O)cccc2]
DRC-2, concentration 2.5
  % inhibition T4 10': -5%
  % inhibition T4 40': -5%
DRC-2, concentration 5
  % inhibition T4 10': -4%
  % inhibition T4 90': -4%

## CC(NC(=O)Cc1cc(=O)[nH]c(SCc2cccc(Cl)c2)n1)c1ccccc1 (stereo not drawn) [Molecule 67, O=C(NC(c1ccccc1)C)Cc1nc(SCc2cccc(c2)Cl)[nH]c(=O)c1]
DRC-2, concentration 10
  % inhibition T4 10': 19%
  % inhibition T4 40': 19%
  % inhibition T4 90': 18%
DRC-2, concentration 20
  % inhibition T4 10': 18%
  % inhibition T4 40': 19%
  % inhibition T4 90': 18%
DRC-2, concentration 80
  % inhibition T4 10': 31%
DRC-2, concentration 2.5
  % inhibition T4 40': -9%
  % inhibition T4 90': -9%
DRC-2, concentration 40
  % inhibition T4 40': 31%

## Cc1ccsc1Cn1c(C)ccc1C [Molecule 70, Cc1ccsc1Cn1c(C)ccc1C]
DRC-1, concentration 2.5
  % inhibition T4 10' 2.5: -4.493%
  % inhibition T4 70' 2.5: -3.335%
  % inhibition T4 130' 2.5: -4.899%
DRC-1, concentration 5
  % inhibition T4 10' 5: -2.675%
  % inhibition T4 70' 5: -3.037%
  % inhibition T4 130' 5: -4.557%
DRC-1, concentration 10
  % inhibition T4 10' 10: 9.004%
  % inhibition T4 70' 10: 6.944%
  % inhibition T4 130' 10: 3.714%
DRC-1, concentration 20
  % inhibition T4 10' 20: 13.0915%
  % inhibition T4 70' 20: 8.488%
  % inhibition T4 130' 20: 4.205%
DRC-1, concentration 40
  % inhibition T4 10' 40: 20.7391%
  % inhibition T4 70' 40: 14.2763%
  % inhibition T4 130' 40: 10.2962%
DRC-1, concentration 80
  % inhibition T4 10' 80: -6.46%
  % inhibition T4 70' 80: -12.9684%
  % inhibition T4 130' 80: -25.7177%
DRC-2, concentration 2.5
  % inhibition T4 10' 2.5: -7%
  % inhibition T4 40' 2.5: -7%
  % inhibition T4 90' 2.5: -5%
  % inhibition T4 180' 2.5: -7%
DRC-2, concentration 5
  % inhibition T4 10' 5: -1.66%
  % inhibition T4 40' 5: -2%
  % inhibition T4 90' 5: -2.51%
  % inhibition T4 180' 5: -9%
DRC-2, concentration 10
  % inhibition T4 10' 10: 10%
  % inhibition T4 40' 10: 10%
  % inhibition T4 90' 10: 8%
  % inhibition T4 180' 10: 1.9%
DRC-2, concentration 20
  % inhibition T4 10' 20: 11%
  % inhibition T4 40' 20: 11%
  % inhibition T4 90' 20: 9%
  % inhibition T4 180' 20: 4%
DRC-2, concentration 40
  % inhibition T4 10' 40: 14%
  % inhibition T4 40' 40: 14%
  % inhibition T4 90' 40: 12%
  % inhibition T4 180' 40: 8%
DRC-2, concentration 80
  % inhibition T4 10' 80: 7.37%
  % inhibition T4 40' 80: 7%
  % inhibition T4 90' 80: 5%
  % inhibition T4 180' 80: 1.21%
